Among the data in ChEMBL document CHEMBL1137863, “Triamino derivatives of triazolotriazine and triazolopyrimidine as adenosine A2a receptor antagonists” (Bioorg Med Chem Lett, 2004) are Dose and Ki values, retold here.

As usually defined, the Ki is the dissociation constant of the complex between target and ligand, obtained from inhibition or displacement. A lower Ki goes with tighter binding.

The test system of one assay is Mus musculus. Nature of the assay: Dose required for oral activity against mice catalepsy induced by 3 mg/kg haloperidol after s.c. administration. In kind it is functional.
The target in another assay is T1, Adenosine receptor A1 (Rattus norvegicus, UniProt P25099).
T1 sequence (P25099 whole entry): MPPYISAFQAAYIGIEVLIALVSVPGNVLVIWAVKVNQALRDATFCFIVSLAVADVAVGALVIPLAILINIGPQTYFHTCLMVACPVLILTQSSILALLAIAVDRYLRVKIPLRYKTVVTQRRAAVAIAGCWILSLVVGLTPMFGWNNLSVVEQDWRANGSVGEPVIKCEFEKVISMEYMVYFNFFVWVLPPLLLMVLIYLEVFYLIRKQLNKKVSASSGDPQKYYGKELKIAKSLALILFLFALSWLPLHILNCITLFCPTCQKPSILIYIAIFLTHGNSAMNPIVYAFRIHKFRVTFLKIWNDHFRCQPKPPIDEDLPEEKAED
Nature of the assay: biochemical.

The next assay deals with Adenosine receptor A2a (Rattus norvegicus, UniProt P30543).
Sequence of Adenosine receptor A2a (P30543 whole entry): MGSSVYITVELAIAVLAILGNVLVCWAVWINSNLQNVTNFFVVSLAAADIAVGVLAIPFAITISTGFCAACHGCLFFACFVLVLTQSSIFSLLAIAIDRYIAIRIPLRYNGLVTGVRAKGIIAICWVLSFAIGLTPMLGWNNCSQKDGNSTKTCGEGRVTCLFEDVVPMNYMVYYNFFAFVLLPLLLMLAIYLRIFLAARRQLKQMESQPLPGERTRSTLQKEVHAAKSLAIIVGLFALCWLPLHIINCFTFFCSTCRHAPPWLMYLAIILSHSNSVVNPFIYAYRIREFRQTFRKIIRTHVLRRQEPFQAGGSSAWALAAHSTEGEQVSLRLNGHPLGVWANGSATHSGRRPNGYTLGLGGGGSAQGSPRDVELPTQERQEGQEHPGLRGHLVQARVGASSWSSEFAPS

Description for Adenosine receptor A1: Binding affinity against Adenosine A1 receptor from rat cerebral cortex was determined using [3H]DPCPX as radioligand
Description for Adenosine receptor A2a: Binding affinity against Adenosine A2a receptor determined using [3H]ZM-241385 as radioligand

`Nc1nc(NCCN2CCN(c3ccc(F)cc3F)CC2)nc2nc(-c3ccco3)nn12` displayed a Dose with Mus musculus of 10 mg/kg. This compound gave a Ki at Adenosine receptor A1 of 1100 nM.

For `CN(CCN1CCN(c2ccc(F)cc2F)CC1)c1nc(N)n2nc(-c3ccco3)nc2n1`, the Dose with Mus musculus was found to be 3 mg/kg.

As for `Nc1nc(NCCCN2CCN(c3ccc(F)cc3F)CC2)nc2nc(-c3ccco3)nn12`, the inhibition constant Ki is above 500 nM at Adenosine receptor A1 and 93 nM on Adenosine receptor A2a.

For the compound `Nc1nc(NCCCN2CCN(c3c(F)cc(F)cc3F)CC2)nc2nc(-c3ccco3)nn12`, the Ki on Adenosine receptor A1 is above 500 nM; on Adenosine receptor A2a it was 100 nM.

`CN(CCN1CCN(c2ccccc2)CC1)c1nc(N)n2nc(-c3ccco3)nc2n1` came in with a Dose in the assay with Mus musculus of 3 mg/kg. Besides, the inhibition constant Ki at Adenosine receptor A1 is 1500 nM; on Adenosine receptor A2a it was 11 nM.

Turning to `Nc1nc(NCCN2CCN(c3c(F)cc(F)cc3F)CC2)cc2nc(-c3ccco3)nn12`, the Ki is above 500 nM on Adenosine receptor A1 and 92 nM on Adenosine receptor A2a.

Turning to `CN(CCN1CCN(c2c(F)cc(F)cc2F)CC1)c1cc2nc(-c3ccco3)nn2c(N)n1`, the results for the Ki on Adenosine receptor A1 and at Adenosine receptor A2a were 790 nM and 24 nM, respectively.

Compound `Nc1nc(NCCCN2CCN(c3ccccc3)CC2)nc2nc(-c3ccco3)nn12` had an inhibition constant Ki on Adenosine receptor A1 above 500 nM.

As to `Nc1nc(N2CCN(c3c(F)cc(F)cc3F)CC2)nc2nc(-c3ccco3)nn12`, affinity at Adenosine receptor A2a was put at a Ki of 29 nM.

`Nc1nc(NCCN2CCN(c3ccc(F)cc3F)CC2)cc2nc(-c3ccco3)nn12`: the Dose in the assay on Mus musculus is above 10 mg/kg. Also, the Ki stood at 2600 nM on Adenosine receptor A1 and 55 nM at Adenosine receptor A2a.

With `CN(CCN1CCN(c2ccc(F)cc2F)CC1)c1cc2nc(-c3ccco3)nn2c(N)n1`, the Dose with Mus musculus is 3 mg/kg. Further, affinity at Adenosine receptor A1 was put at a Ki of 750 nM.

As to `Nc1nc(NCCN2CCN(c3ccccc3)CC2)nc2nc(-c3ccco3)nn12`, the Dose in the assay with Mus musculus is above 10 mg/kg. The Ki at Adenosine receptor A1 was above 500 nM; at Adenosine receptor A2a it was 22 nM.

As for `Nc1nc(NCCN2CCN(c3c(F)cc(F)cc3F)CC2)nc2nc(-c3ccco3)nn12`, the inhibition constant Ki at Adenosine receptor A1 was above 500 nM; on Adenosine receptor A2a, 24 nM.
